Results taken from US11932606B2, “Anti-cancer/anti-fibrosis compounds” (THE REGENTS OF THE UNIVERSITY OF CALIFORNIA, priority 2017, dated 2024).
Like-named read-outs stand apart in the source and are kept apart here.

Assays:
CDK8/cyclinC = CDK8/cyclinC (Homo sapiens (Human), UniProt P49336); test: CDK8 LanthaScreen Eu kinase binding assay; settings: read-out: IC50 against CDK8
Description: CDK8 Enzymatic Activity Inhibition: Determination of IC50 Values for Selected Compounds
(§1) The half maximal inhibitory concentration (IC50) with respect to CDK8 inhibition was determined for the compounds of the invention by using LanthaScreen™ Eu kinase binding assay from ThermoFisher Scientific's SelectScreen™ Biochemical Kinase Profiling Service (Waltham, MA). Compounds were screened in 1% DMSO (final) in the well. For 10 point titrations, 3-fold serial dilutions were conducted from the starting concentration.
The 2×CDK8/cyclinC/Eu-anti-His mixture is prepared in kinase buffer A (50 mM HEPES pH 7.5, 0.01% BRIJ-35, 10 mM MgCl2, 1 mM EGTA). The Bar-coded, low volume, white 384-well plate (Greiner Cat. #784207) were used for the assay. 160 nL of 100× test compound in 100% DMSO, 3.84 uL of kinase buffer A, 8 uL of 2×CDK8/cyclinC/Eu-anti-His mixture, and 4 uL of 4× tracer 236 were mixed and shaked for 30 seconds. Then the Kinase Reaction was incubated at room temperature for 60 minutes. After the 1 hour Kinase Reaction incubation, the plate was read on a fluorescence plate reader (Infinite F500, Tecan Systems Inc, USA), and data was analyzed using XLfit from IDBS. The dose response curve was curve fit to model number 205 (sigmoidal dose-response model).

CDK19 (inactive) = CDK19 (inactive) (Homo sapiens (Human), UniProt Q9BWU1); test: CDK19 (inactive) LanthaScreen Eu kinase binding assay; settings: read-out: IC50 against CDK19
CDK19 (inactive), sequence (Q9BWU1 whole entry): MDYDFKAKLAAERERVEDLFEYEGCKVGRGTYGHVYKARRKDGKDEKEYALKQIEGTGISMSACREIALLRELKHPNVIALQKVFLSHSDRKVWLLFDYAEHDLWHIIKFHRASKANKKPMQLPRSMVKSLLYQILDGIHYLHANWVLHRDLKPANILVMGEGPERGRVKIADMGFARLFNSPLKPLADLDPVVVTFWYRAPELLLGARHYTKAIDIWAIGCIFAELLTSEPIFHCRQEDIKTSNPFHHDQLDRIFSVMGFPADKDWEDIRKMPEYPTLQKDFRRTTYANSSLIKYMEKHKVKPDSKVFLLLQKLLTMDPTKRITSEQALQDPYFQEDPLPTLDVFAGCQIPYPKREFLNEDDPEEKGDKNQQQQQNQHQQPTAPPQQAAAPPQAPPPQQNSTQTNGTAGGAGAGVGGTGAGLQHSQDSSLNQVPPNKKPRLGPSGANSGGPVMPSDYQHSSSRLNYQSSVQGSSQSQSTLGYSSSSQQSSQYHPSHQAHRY
Description: Compounds were screened in 1% DMSO (final) in the well. For 10 point titrations, 3-fold serial dilutions were conducted from the starting concentration.
The Bar-coded, low volume, white 384-well plate (Greiner Cat. #784207) were used for the assay. […] Then the Kinase Reaction was incubated at room temperature for 60 minutes. After the 1 hour Kinase Reaction incubation, the plate was read on a fluorescence plate reader (Infinite F500, Tecan Systems Inc, USA) and data was analyzed using XLfit from IDBS. The dose response curve was curve fit to model number 205 (sigmoidal dose-response model).

MOLM-14 xenograft tumors = test: Western analysis / pharmacodynamics of MOLM-14 xenograft tumors; assay type: in vivo, mouse
Description: For tissue: Tissue was homogenized and protein was extracted using T-per Mammalian protein extraction reagent (78510, Thermo Fisher Scientific). In the pharmacodynamics study, mice bearing tumors were treated with vehicle, 10 mg/kg, 50 mg/kg and 100 mg/kg for 6 hrs. After 6 hrs of treatment, tumors were removed for further procedure.
Proteins were separated on SDS-PAGE and transferred to nitrocellulose membrane. Immunoblotting were performed using specific antibodies: phosphor-Stat1-pS727 (8826, Cell signaling), total-Stat1 (14994, Cell signaling), Phospho-Stat3 (Tyr705) (9131, Cell signaling), Stat3 (9139, Cell signaling), pSTAT5-pS726 (ab128896, abcam), stat5 (94205, cell signaling), YAP (14074, Cell signaling), CYR61(14479, Cell signaling), CTGF (ab6992, Abcam), c-Myc (13987, Cell signaling), Mcl-1 (94296, Cell signaling) and GAPDH (AM4300, Invitrogen). (FIG. 1A, FIG. 1B, FIG. 1C). MV-4-11 cancer cell line was treated with compound 29 at various concentrations (30 nM up to 10 μM) for 24 hours and 48 hours, respectively.
Tumors from the MOLM-14 xenograft study were collected and processed for western analysis. In the western results showing above, the level of p-STAT1 (Ser727) in the three mice samples from the treated group were much lower compared to that in the three mice samples from the control group.

SET-2 = test: AML cell viability (CellTiter-Glo, day 7); assay type: cell-based; settings: Homo sapiens
MV-4-11 xenograft = test: MV-4-11 mouse xenograft model; assay type: in vivo; settings: 50 mg/kg orally b.i.d., 21 days
Description: 40 CR female NCr nu/nu mice (Charles River Laboratories) were injected with 1×10^7 MV-4-11 cells in 50% matrigel s.c. in flank. Cell Injection Volume is 0.1 mL/mouse for MV-4-11 cells. Age of mice at start date is 8 to 12 weeks. Perform a pair match when tumors grow after two weeks and begin treatment. Compound 29 was given orally twice a day for 21 consecutive days. Body weight and tumor size were measured every three days. In the MV-4-11 xenograft model, mice were treated with compound 29 with 50 mg/kg for 21 days (orally, b.i.d). The tumor volume from control and vehicle group were measured, compared. […] Body weights of mice in both groups were measured and plotted.

HIPK2 = HIPK2 (Homo sapiens (Human), UniProt Q9H2X6); test: HIPK2 enzymatic activity inhibition (Z'-LYTE); assay type: biochemical; settings: read-out: HIPK2 IC50
HIPK2, sequence (Q9H2X6 whole entry): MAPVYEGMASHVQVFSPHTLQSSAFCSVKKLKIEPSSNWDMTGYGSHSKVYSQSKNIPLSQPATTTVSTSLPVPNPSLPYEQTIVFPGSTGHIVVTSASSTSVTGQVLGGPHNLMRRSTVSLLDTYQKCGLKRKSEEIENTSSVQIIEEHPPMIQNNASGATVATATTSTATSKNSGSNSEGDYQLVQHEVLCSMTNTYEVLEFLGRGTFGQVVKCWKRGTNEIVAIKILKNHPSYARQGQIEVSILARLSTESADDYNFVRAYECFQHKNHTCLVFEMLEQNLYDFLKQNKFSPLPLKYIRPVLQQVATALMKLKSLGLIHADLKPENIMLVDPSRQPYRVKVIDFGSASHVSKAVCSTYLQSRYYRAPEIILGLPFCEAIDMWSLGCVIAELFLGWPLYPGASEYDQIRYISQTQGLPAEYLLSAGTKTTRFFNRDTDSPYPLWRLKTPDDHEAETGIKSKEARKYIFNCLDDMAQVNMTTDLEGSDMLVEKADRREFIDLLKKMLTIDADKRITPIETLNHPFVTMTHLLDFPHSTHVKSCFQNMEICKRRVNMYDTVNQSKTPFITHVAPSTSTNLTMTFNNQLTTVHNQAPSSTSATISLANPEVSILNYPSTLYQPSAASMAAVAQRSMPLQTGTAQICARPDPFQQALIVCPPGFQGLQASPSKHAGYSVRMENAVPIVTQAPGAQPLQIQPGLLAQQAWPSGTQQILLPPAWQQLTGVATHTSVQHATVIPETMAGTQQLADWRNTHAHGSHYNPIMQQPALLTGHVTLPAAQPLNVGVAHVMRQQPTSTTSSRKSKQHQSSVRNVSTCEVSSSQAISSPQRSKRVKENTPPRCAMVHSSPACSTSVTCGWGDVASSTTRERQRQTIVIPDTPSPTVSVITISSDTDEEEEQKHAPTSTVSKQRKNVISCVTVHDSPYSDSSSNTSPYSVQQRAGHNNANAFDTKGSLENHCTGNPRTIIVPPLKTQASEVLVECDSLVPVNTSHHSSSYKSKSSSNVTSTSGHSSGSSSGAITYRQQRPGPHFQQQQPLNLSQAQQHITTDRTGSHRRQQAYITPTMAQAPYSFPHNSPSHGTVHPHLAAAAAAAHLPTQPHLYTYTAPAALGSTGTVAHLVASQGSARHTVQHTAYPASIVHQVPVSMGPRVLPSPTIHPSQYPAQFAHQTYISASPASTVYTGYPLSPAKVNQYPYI
Description: HIPK2 Enzymatic Activity Inhibition: Determination of IC50 Values for Selected Compounds
as §1, with “HIPK2” for “CDK8”, “Z′-LYTE™” for “LanthaScreen™ Eu kinase binding assay”, “concentration. The 2×HIPK2/Ser/Thr 09 mixture was prepared in 50 mM HEPES pH 7.5, 0.01% BRIJ-35, 10 mM MgCl2, 1 mM EGTA.” for “concentration.”
100 nL of 100× test compound in 100% DMSO, 2.4 uL of kinase buffer (50 mM HEPES pH 7.5, 0.01% BRIJ-35, 10 mM MgCl2, 1 mM EGTA), 5 uL of 2×HIPK2/Ser/Thr 09 mixture, and 2.5 uL of 4×ATP solution were mixed and agitated for 30 seconds. Then the Kinase Reaction was incubated at room temperature for 60 minutes. […] After 30 second of plate shake, the reaction plate was incubated for another 60 min at room temperature. Then the plate was read on a fluorescence plate reader (CLARIOstar, BMG Labtech, Germany) as plate reader and data was analyzed using XLfit from IDBS.

[1] = tumors from MOLM-14 xenograft study, Western

CDK8/cyclinC, sequence (P49336 whole entry): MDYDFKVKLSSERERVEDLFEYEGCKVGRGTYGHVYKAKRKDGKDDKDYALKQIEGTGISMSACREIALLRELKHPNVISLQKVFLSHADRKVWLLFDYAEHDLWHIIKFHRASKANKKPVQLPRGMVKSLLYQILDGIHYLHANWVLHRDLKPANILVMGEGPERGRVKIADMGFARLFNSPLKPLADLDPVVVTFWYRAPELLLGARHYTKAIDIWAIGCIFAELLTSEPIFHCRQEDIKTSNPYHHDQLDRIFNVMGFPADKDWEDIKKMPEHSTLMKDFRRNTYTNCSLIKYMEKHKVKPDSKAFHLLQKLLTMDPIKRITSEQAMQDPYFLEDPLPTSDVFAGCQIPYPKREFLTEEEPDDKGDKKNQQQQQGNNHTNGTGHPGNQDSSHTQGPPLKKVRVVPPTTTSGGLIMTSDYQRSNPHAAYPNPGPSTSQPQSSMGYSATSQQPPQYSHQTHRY
CDK8/cyclinC, sequence (P24863 whole entry partner): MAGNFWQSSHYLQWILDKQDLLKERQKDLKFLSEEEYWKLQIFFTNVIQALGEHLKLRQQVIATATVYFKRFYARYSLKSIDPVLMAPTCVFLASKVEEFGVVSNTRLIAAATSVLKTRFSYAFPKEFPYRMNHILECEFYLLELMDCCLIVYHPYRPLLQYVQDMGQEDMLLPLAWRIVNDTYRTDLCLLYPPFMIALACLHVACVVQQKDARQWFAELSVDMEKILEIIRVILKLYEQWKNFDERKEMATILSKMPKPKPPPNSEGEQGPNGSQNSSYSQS

IC50 (CDK8/cyclinC): < 300 nM
IC50 (CDK19 (inactive)): < 300 nM
IC50 (HIPK2): < 300 nM
Compound: Nc1nccc2c(Br)cc3cc(C(=O)[O-])ccc3c12.[Na+] [Compound 29, Sodium 1-amino-5-bromobenzo[h]isoquinoline-8-carboxylate]
p-STAT1 (Ser727) in tumors, pharmacodynamics study (MOLM-14 xenograft tumors; 10 mg/kg, 50 mg/kg and 100 mg/kg, 6 hrs): a dose response (10 mg/kg, 50 mg/kg and 100 mg/kg) of down regulation
level of p-STAT1 (Ser727) in tumors vs control group (MOLM-14 xenograft tumors; [1]): much lower
level of p-STAT5(Ser726) in tumors vs control group (MOLM-14 xenograft tumors; [1]): lower level
IC50 (SET-2; 168 h, SET-2, day 7, read-out: Cell viability IC50): < 1000 nM
IC50 (SET-2; SET-2, text statement, read-out: potency in cell viability assay): < 1000 nM
Body weight (MV-4-11 xenograft): didn't suffer from weight loss
Tumor volume vs control group (MV-4-11 xenograft; last measurement point): only about half the size of tumors from the control group
